Data on 53 compounds can be found in US9073892B2, “Indazolyl triazol derivatives” (Merck Serono S.A., priority 2010, dated 2015).

The IC50 is the midpoint of a concentration-inhibition curve.

Structures can show the parent of a compound that is named as a salt.

For this assay, the system named is T1, IRAK1/4 human.
T1 construct: fused on or other part: His tag and TEV cleavage site at the N-terminus
As to the kind of experiment: IRAK1/4 phosphorylation IC50 (enzymatic assay, table 2). In kind it is biochemical. As to conditions: human IRAK1/4 phosphorylation. The essentials: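 Human IRAK-1 or IRAK-4, each carrying a His-TEV tag, was incubated with ATP and compounds in DMSO ranging from 20 µM to 1 nM in 384-well plates, and IRAK-4 reactions also contained STK1-biotin peptide. Reactions ran in 50 mM Hepes pH7.0 with MgCl2, DTT, EGTA and BSA for 2 or 3 hours, with 2% DMSO controls. Inhibition is given as IC50.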
`OC1CNCCC1c1ccc(-n2cc(-c3n[nH]c4ccccc34)nn2)cc1` (centres unmarked) [Example 137, 4-{4-[4-(1H-indazol-3-yl)-1H-1,2,3-triazol-1-yl]phenyl}piperidin-3-ol hydrochloride] had an IC50 of 100 to 1000 nM.

`CC(C)=Cc1ccc2[nH]nc(-c3cn(-c4ccc(C(=O)N5CCC(N(C)C)CC5)cc4)nn3)c2c1` [Example 138, N,N-dimethyl-1-(4-{4-[5-(2-methylprop-1-en-1-yl)-1H-indazol-3-yl]-1H-1,2,3-triazol-1-yl}benzoyl)piperidin-4-amine] yielded an IC50 of 100 to 1000 nM.

As to `CC(C)Cc1ccc2[nH]nc(-c3cn(-c4ccc(C(=O)N5CCC(N(C)C)CC5)cc4)nn3)c2c1` [Example 139, 1-{4-[4(5-isobutyl-1H-indazol-3-yl)-1H-1,2,3-triazol-1-yl]benzoyl}-N,N-dimethylpiperidin-4-amine], the IC50 was in the range of 100 to 1000 nM.

In turn, `CN1C2CCC1CC(n1cc(-n3cc(-c4n[nH]c5ccccc45)nn3)cn1)C2` (centres unmarked) [Example 140, 3-{1-[1-(8-methyl-8-azabicyclo[3.2.1]oct-3-yl)-1H-pyrazol-4-yl]-1H-1,2,3-triazol-4-yl}-1H-indazole] showed an IC50 below 100 nM.

Compound `COC(=O)c1ccc2[nH]nc(-c3cn(-c4ccc(CN5CCOCC5)cc4)nn3)c2c1` [Example 142, methyl 3-{1-[4-(morpholin-4-ylmethyl)phenyl]-1H-1,2,3-triazol-4-yl}-1H-indazole-5-carboxylate] came in with an IC50 of 100 to 1000 nM.

Turning to `CN1CCC(NC(=O)c2ccc3[nH]nc(-c4cn(-c5ccc(CN6CCOCC6)cc5)nn4)c3c2)CC1` [Example 143, N-(1-methylpiperidin-4-yl)-3-{1-[4-(morpholin-4-ylmethyl)phenyl]-1H-1,2,3-triazol-4-yl}-1H-indazole-5-carboxamide], the IC50 was in the range of 100 to 1000 nM.

For the compound `O=C(c1ccc(-n2cc(-c3n[nH]c4ccc(Cn5nc(-c6ccc(O)cc6)ccc5=O)cc34)nn2)cc1)N1CCOCC1` [Example 144, 6-(4-hydroxyphenyl)-2-[(3-{1-[4-(morpholin-4-ylcarbonyl)phenyl]-1H-1,2,3-triazol-4-yl}-1H-indazol-5-yl)methyl]pyridazin-3(2H)-one], the IC50 is below 100 nM.

As for `O=C(c1ccc(-n2cc(-c3n[nH]c4cc(C#CCO)ccc34)nn2)cc1)N1CCOCC1` [Example 146, 3-(3-{1-[4-(morpholin-4-ylcarbonyl)phenyl]-1H-1,2,3-triazol-4-yl}-1H-indazol-6-yl)prop-2-yn-1-ol], the IC50 fell in the range of 100 to 1000 nM.

`O=C(c1ccc(-n2cc(-c3n[nH]c4cc(CCCO)ccc34)nn2)cc1)N1CCOCC1` [Example 147, 3-(3-{1-[4-(morpholin-ylcarbonyl)phenyl]-1H-1,2,3-triazol-4-yl}-1H-indazol-6-yl)propan-1-ol] had an IC50 of 100 to 1000 nM.

`CN1CCCC(Nc2ccc3[nH]nc(-c4cn(-c5ccc(C(=O)N6CCOCC6)cc5)nn4)c3c2)C1` (centres unmarked) [Example 148, N-(1-methylpiperidin-3-yl)-3-{1-[4-(morpholin-4-ylcarbonyl)phenyl]-1H-1,2,3-triazol-4-yl}-1H-indazol-5-amine] came in with an IC50 below 100 nM.

With `CN(C)C1CCN(c2ccc3[nH]nc(-c4cn(-c5ccc(C(=O)N6CCOCC6)cc5)nn4)c3c2)C1` (centres unmarked) [Example 149, N,N-dimethyl-1-(3-{1-[4-(morpholin-4-ylcarbonyl)phenyl]-1H-1,2,3-triazol-4-yl}-1H-indazol-5-yl)pyrrolidin-3-amine], the IC50 was below 100 nM.

`OC(c1ccc(-n2cc(-c3n[nH]c4ccccc34)nn2)cc1)C(F)(F)F` (centres unmarked) [Example 150, 2,2,2-trifluoro-1-{4-[4-(1H-indazol-3-yl)-1H-1,2,3-triazol-1-yl]phenyl}ethanol]: the IC50 lay in the range of 100 to 1000 nM.

`O=C(c1ccc(-n2cc(-c3n[nH]c4ccc(OCCCO)cc34)nn2)cc1)N1CCOCC1` [Example 153, 3-[(3-{1-[4-(morpholin-4-ylcarbonyl)phenyl]-1H-1,2,3-triazol-4-yl}-1H-indazol-5-yl)oxy]propan-1-ol]: the IC50 lay within 100 to 1000 nM.

In turn, `O=C1C[C@H](OCc2ccc3[nH]nc(-c4cn(-c5ccc(C(=O)N6CCOCC6)cc5)nn4)c3c2)CO1` [Example 154, (4S)-4-[(3-{1-[4-(morpholin-4-ylcarbonyl)phenyl]-1H-1,2,3-triazol-4-yl}-1H-indazol-5-yl)methoxy]dihydrofuran-2(3H)-one] yielded an IC50 of 100 to 1000 nM.

Consider `O=C(c1ccc(-n2cc(-c3n[nH]c4ccccc34)nn2)cn1)N1CCOCC1` [Example 155], for which the IC50 lay in the range of 100 to 1000 nM.

As for `O=C(c1ccc(-n2cc(-c3n[nH]c4ccc(C(F)(F)F)cc34)nn2)cc1)N1CCOCC1` [Example 156], the half-maximal inhibitory concentration (IC50) is 100 to 1000 nM.

The compound `O=C(c1ccc(-n2cc(-c3n[nH]c4ccc(F)cc34)nn2)cc1)N1CCOCC1` [Example 157] showed an IC50 of 100 to 1000 nM.

`CN(C)C1CCN(C(=O)c2ccc(-n3cc(-c4n[nH]c5ccc(C(F)(F)F)cc45)nn3)cc2)CC1` [Example 159] had an IC50 of 100 to 1000 nM.

Regarding `CC1CN(C(=O)c2ccc(-n3cc(-c4n[nH]c5ccccc45)nn3)cc2)CCO1` (centres unmarked) [Example 160], the concentration for half-maximal inhibition (IC50) lay in the range of 100 to 1000 nM.

With `O=C(c1ccc(-n2cc(-c3n[nH]c4ccccc34)nn2)cc1)N1CCOC(CO)C1` (centres unmarked) [Example 161], the IC50 lay in the range of 100 to 1000 nM.

Consider `CC1(C)CN(C(=O)c2ccc(-n3cc(-c4n[nH]c5ccccc45)nn3)cc2)CCO1` [Example 162], for which the IC50 was 100 to 1000 nM.

In the case of `CN1CCCC2(CCCN(C(=O)c3ccc(-n4cc(-c5n[nH]c6ccccc56)nn4)cc3)C2)C1=O` (centres unmarked) [Example 163], the IC50 was 100 to 1000 nM.

As for `CCOCC1CCCN(C(=O)c2ccc(-n3cc(-c4n[nH]c5ccccc45)nn3)cc2)C1` (centres unmarked) [Example 164], the IC50 is 100 to 1000 nM.

`O=C(c1ccc(-n2cc(-c3n[nH]c4ccccc34)nn2)cc1)N1CCCC2(COC2)C1` [Example 165] gave an IC50 of 100 to 1000 nM.

Take `O=C(c1ccc(-n2cc(-c3n[nH]c4ccccc34)nn2)cc1)N1CCN2CCCC2C1` (centres unmarked) [Example 166]: the IC50 was 100 to 1000 nM.

Compound `O=C(c1ccc(-n2cc(-c3n[nH]c4ccccc34)nn2)cc1)N1CCOC(CCO)C1` (centres unmarked) [Example 167] displayed an IC50 of 100 to 1000 nM.

`COCCC1CN(C(=O)c2ccc(-n3cc(-c4n[nH]c5ccccc45)nn3)cc2)CCO1` (centres unmarked) [Example 168] had an IC50 of 100 to 1000 nM.

The compound `O=C(Nc1cnn(C2CCNC2)c1)c1ccc(-n2cc(-c3n[nH]c4ccccc34)nn2)cc1` (centres unmarked) [Example 169] showed an IC50 of 100 to 1000 nM.

`O=C(c1ccc(-n2cc(-c3n[nH]c4ccccc34)nn2)cc1)N1CC2(COC2)C1` [Example 170] returned an IC50 of 100 to 1000 nM.

Compound `CN(C(=O)c1ccc(-n2cc(-c3n[nH]c4ccccc34)nn2)cc1)C1CCOCC1` [Example 171] returned an IC50 of 100 to 1000 nM.

Compound `CN(C)C1CCN(C(=O)c2ccc(-n3cc(-c4n[nH]c5ccc(C6=CCCC6)cc45)nn3)cc2)CC1` [Example 172] yielded an IC50 of 100 to 1000 nM.

For `CN(C)C1CCN(C(=O)c2ccc(-n3cc(-c4n[nH]c5ccc(C6=CCOCC6)cc45)nn3)cc2)CC1` [Example 173], the IC50 is 100 to 1000 nM.

In turn, `CN(C)C1CCN(C(=O)c2ccc(-n3cc(-c4n[nH]c5ccc(C6=CCCCC6)cc45)nn3)cc2)CC1` [Example 174] had an IC50 of 100 to 1000 nM.

`Cc1cccc2[nH]nc(-c3cn(-c4ccc(C(=O)N5CCOCC5)cc4)nn3)c12` [Example 175] registered an IC50 of 1000 to 5000 nM.

In turn, `O=C(Nc1cnn(CCc2ccncc2)c1)c1ccc(-n2cc(-c3n[nH]c4ccccc34)nn2)cc1` [Example 176] came in with an IC50 of 100 to 1000 nM.

As to `O=C(c1ccc(-n2cc(-c3n[nH]c4ccc(Cn5nc(-c6cccnc6)ccc5=O)cc34)nn2)cc1)N1CCOCC1` [Example 177], the IC50 was below 100 nM.

Consider `CN(C)C1CCN(C(=O)c2ccc(-n3cc(-c4n[nH]c5ccc(C6CCOCC6)cc45)nn3)cc2)CC1` [Example 178], for which the IC50 was in the range of 100 to 1000 nM.

As to `CN(C)C1CCN(C(=O)c2ccc(-n3cc(-c4n[nH]c5ccc(C6CCCCC6)cc45)nn3)cc2)CC1` [Example 179], the IC50 lay within 100 to 1000 nM.

In turn, `c1ccc2c(-c3cn(-c4cnn(CCN5CCOCC5)c4)nn3)n[nH]c2c1` [Example 180] yielded an IC50 of 100 to 1000 nM.

Regarding `COc1cnccc1-c1ccc2[nH]nc(-c3cn(-c4ccc(C(=O)N5CCOCC5)cc4)nn3)c2c1` [Example 181], the IC50 is 100 to 1000 nM.

For the compound `O=C(c1ccc(-n2cc(-c3n[nH]c4cccc(F)c34)nn2)cc1)N1CCOCC1` [Example 182], the IC50 lay within 1000 to 5000 nM.

`CN(C)C1CCN(C(=O)c2ccc(-n3cc(-c4n[nH]c5ccc(C6CCCC6)cc45)nn3)cc2)CC1` [Example 183] registered an IC50 of 100 to 1000 nM.

`Cc1ccc2c(-c3cn(-c4ccc(C(=O)N5CCOCC5)cc4)nn3)n[nH]c2c1` [Example 184] yielded an IC50 below 100 nM.

Regarding `O=C(c1ccc(-n2cc(-c3n[nH]c4cc(Cl)ccc34)nn2)cc1)N1CCOCC1` [Example 185], the IC50 lay within 100 to 1000 nM.

Consider `CN1CCC(n2cc(-n3cc(-c4n[nH]c5ccccc45)nn3)cn2)CC1` [Example 186], for which the IC50 is below 100 nM.

The compound `OCc1ccc(-n2cc(-c3n[nH]c4ccccc34)nn2)cc1` [Example 187] registered an IC50 of 100 to 1000 nM.

Compound `COc1cc2[nH]nc(-c3cn(-c4ccc(C(=O)N5CCOCC5)cc4)nn3)c2cc1OC` [Example 189] had an IC50 of 100 to 1000 nM.

`O=C(c1ccc(-n2cc(-c3n[nH]c4ccc(Cn5nc(-c6ccc(O)c(F)c6)ccc5=O)cc34)nn2)cc1)N1CCOCC1` [Example 190]: the IC50 was below 100 nM.

With `O=C(c1ccc(-n2cc(-c3n[nH]c4ccc(O)cc34)nn2)cc1)N1CCOCC1` [Example 192], the IC50 is below 100 nM.

`O=C(c1ccc(-n2cc(-c3n[nH]c4ccc(Cl)cc34)nn2)cc1)N1CCOCC1` [Example 193] returned an IC50 of 100 to 1000 nM.

For `O=C(c1ccc(-n2cc(-c3n[nH]c4cc(F)ccc34)nn2)cc1)N1CCOCC1` [Example 194], the IC50 lay within 100 to 1000 nM.

The compound `COc1ccc2c(-c3cn(-c4ccc(C(=O)N5CCOCC5)cc4)nn3)n[nH]c2c1` [Example 195] yielded an IC50 of 100 to 1000 nM.

The compound `O=c1ccc(-c2ccncc2)nn1Cc1ccc2[nH]nc(-c3cn(-c4ccc(CN5CCOCC5)cc4)nn3)c2c1` [Example 196] gave an IC50 below 100 nM.
